Experimental data from publication PMC6691788, “Design and synthesis of phthalazine-based compounds as potent anticancer agents with potential antiangiogenic activity via VEGFR-2 inhibition” (Journal of Enzyme Inhibition and Medicinal Chemistry, 2019).

What was measured:
[1] = tested on: SK-MEL-28; test: NCI 60 cell panel SRB screen; format: cell-based; conditions: Homo sapiens; for activity at 10 µM: SK-MEL-28, read-out: percent cell growth promotion
[2] = tested on: NCI-H226; test: NCI 60 cell panel SRB screen; format: cell-based; conditions: Homo sapiens; for activity at 10 µM: NCI-H226, single dose 10 μM, read-out: percent cell growth promotion
[3] = tested on: SR; test: NCI 60 cell panel SRB screen; format: cell-based; conditions: Homo sapiens; for activity at 10 µM: single dose 10 μM, read-out: percent cell growth promotion
[4] = target: T1, VEGFR-2 tyrosine kinase (Homo sapiens, UniProt P35968); test: In vitro VEGFR-2 tyrosine kinase assay (BPS Bioscience); format: biochemical; conditions: read-out: VEGFR-2 % inhibition; 10 μM concentration
T1 construct: purchased BPS Bioscience 40301
Summary of the method: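 For IC50, ADP formation after a 30-min 30 °C reaction was detected by ADP-Glo luminescence in duplicate, blank-subtracted and fitted as log inhibitor versus normalised response. The 10 µM single-dose test instead measured remaining ATP (Kinase-Glo Plus) after 40 min at 30 °C with poly(Glu,Tyr) substrate, 10 μM ATP, pH 7.4, 1% DMSO.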

[5] = tested on: NCI-H522; test: NCI 60 cell panel SRB screen; format: cell-based; conditions: Homo sapiens; for activity at 10 µM: NCI-H522, single dose 10 μM, read-out: percent cell growth promotion
[6] = tested on: SW-620; test: NCI 60 cell panel SRB screen; format: cell-based; conditions: Homo sapiens; for activity at 10 µM: SW-620, single dose 10 μM, read-out: percent cell growth promotion
[7] = tested on: CCRF-CEM; test: NCI 60 cell panel SRB screen; format: cell-based, human; conditions: for activity at 10 µM: single dose 10 μM, read-out: percent cell growth promotion
[8] = tested on: SNB-75; test: NCI 60 cell panel SRB screen; format: cell-based; conditions: Homo sapiens; for activity at 10 µM: SNB-75, single dose 10 μM, read-out: percent cell growth promotion
[9] = tested on: LOX IMVI; test: NCI 60 cell panel SRB screen; format: cell-based; conditions: Homo sapiens; for activity at 10 µM: read-out: percent cell growth promotion
[10] = tested on: NCI-H23; test: NCI 60 cell panel SRB screen; format: cell-based; conditions: Homo sapiens; for activity at 10 µM: NCI-H23, single dose 10 μM, read-out: percent cell growth promotion
[11] = tested on: OVCAR-4; test: NCI 60 cell panel SRB screen; format: cell-based; conditions: Homo sapiens; for activity at 10 µM: OVCAR-4, single dose 10 μM, read-out: percent cell growth promotion
[12] = tested on: NCI-H322M; test: NCI 60 cell panel SRB screen; format: cell-based; conditions: Homo sapiens; for activity at 10 µM: single dose 10 μM, read-out: percent cell growth promotion
[13] = tested on: OVCAR-5; test: NCI 60 cell panel SRB screen; format: cell-based; conditions: Homo sapiens; for activity at 10 µM: OVCAR-5, single dose 10 μM, read-out: percent cell growth promotion
[14] = tested on: COLO 205; test: NCI 60 cell panel SRB screen; format: cell-based; conditions: Homo sapiens; for activity at 10 µM: COLO 205, single dose 10 μM, read-out: percent cell growth promotion
[15] = tested on: BT-549; test: NCI 60 cell panel SRB screen; format: cell-based; conditions: Homo sapiens; for activity at 10 µM: BT-549, read-out: percent cell growth promotion
[16] = tested on: 786-0; test: NCI 60 cell panel SRB screen; format: cell-based; conditions: Homo sapiens; for activity at 10 µM: 786-0, single dose 10 μM, read-out: percent cell growth promotion
[17] = tested on: K-562; test: NCI 60 cell panel SRB screen; format: cell-based; conditions: Homo sapiens, K562; for activity at 10 µM: K-562, single dose 10 μM, read-out: percent cell growth promotion
[18] = tested on: MALME-3M; test: NCI 60 cell panel SRB screen; format: cell-based; conditions: Homo sapiens; for activity at 10 µM: read-out: percent cell growth promotion
[19] = tested on: T-47D; test: NCI 60 cell panel SRB screen; format: cell-based; conditions: Homo sapiens, T47D; for activity at 10 µM: read-out: percent cell growth promotion
[20] = tested on: RPMI-8226; test: NCI 60 cell panel SRB screen; format: cell-based; conditions: Homo sapiens; for activity at 10 µM: RPMI-8226, single dose 10 μM, read-out: percent cell growth promotion
[21] = 5 log dose, 48 h, read-out: LC50 (the source's name)

T1 sequence (P35968 20-1356): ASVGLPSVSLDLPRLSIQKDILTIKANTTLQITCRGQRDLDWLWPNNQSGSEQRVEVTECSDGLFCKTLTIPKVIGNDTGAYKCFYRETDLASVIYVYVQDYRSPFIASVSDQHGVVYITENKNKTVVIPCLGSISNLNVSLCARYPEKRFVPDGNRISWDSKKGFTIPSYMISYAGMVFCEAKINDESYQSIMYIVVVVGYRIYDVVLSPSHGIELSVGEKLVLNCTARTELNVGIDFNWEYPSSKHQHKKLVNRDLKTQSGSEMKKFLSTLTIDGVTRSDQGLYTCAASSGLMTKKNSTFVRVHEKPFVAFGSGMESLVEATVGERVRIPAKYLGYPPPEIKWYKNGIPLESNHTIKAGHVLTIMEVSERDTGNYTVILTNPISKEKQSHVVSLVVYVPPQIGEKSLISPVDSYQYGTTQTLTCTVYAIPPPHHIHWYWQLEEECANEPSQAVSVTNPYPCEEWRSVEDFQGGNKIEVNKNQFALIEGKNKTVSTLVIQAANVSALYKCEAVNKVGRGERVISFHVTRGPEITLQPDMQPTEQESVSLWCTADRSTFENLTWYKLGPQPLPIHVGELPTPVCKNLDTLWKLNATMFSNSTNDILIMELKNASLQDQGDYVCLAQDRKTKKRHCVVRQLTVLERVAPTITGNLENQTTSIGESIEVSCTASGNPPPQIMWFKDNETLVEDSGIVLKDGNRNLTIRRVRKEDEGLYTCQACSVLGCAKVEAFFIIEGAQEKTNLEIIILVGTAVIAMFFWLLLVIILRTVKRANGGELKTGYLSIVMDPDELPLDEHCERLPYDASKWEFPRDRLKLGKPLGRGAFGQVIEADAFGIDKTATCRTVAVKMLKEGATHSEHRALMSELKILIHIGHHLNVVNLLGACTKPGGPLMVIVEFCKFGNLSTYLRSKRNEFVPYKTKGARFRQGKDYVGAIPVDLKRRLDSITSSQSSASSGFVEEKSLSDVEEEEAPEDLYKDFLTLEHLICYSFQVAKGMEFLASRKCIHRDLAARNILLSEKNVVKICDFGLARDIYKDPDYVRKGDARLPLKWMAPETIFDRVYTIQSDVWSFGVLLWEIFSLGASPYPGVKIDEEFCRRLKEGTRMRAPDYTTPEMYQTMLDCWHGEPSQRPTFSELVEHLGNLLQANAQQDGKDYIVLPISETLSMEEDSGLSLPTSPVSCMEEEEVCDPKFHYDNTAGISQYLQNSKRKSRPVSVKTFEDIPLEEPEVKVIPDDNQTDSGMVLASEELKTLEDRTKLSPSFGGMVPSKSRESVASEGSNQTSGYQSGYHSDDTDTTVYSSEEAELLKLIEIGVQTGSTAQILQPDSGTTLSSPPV

SMILES: Clc1ccc(Nc2nnc(COc3ccccc3)c3ccccc23)cc1 [Compound 17a, N-(4-Chlorophenyl)-4-(phenoxymethyl)phthalazin-1-amine]
- GI50 ([1]; SK-MEL-28): 2.84 µM
- IC (TGI) ([1]; SK-MEL-28, read-out: TGI): 7.23 µM
- activity at 10 µM [1]: 4.73%
- CC50 ([1]; SK-MEL-28, 5 log dose, 48 h, read-out: LC50 (the source's name)): 18.4 µM
- GI50 ([2]; NCI-H226, 5 log dose): 1.56 µM
- IC (TGI) ([2]; NCI-H226, 5 log dose): 6.58 µM
- CC50 ([2]; NCI-H226, 5 log dose, 48 h, read-out: LC50 (the source's name)): 21.7 µM
- activity at 10 µM [2]: 1.78%
- GI50 ([3]; 5 log dose): 1.23 µM
- IC (TGI) ([3]; 5 log dose): 11.2 µM
- CC50 [3, 21]: > 25 µM
- activity at 10 µM [3]: -20.6%
- inhibition at 10 µM [4]: 31%
- GI50 ([5]; NCI-H522, 5 log dose): 0.35 µM
- IC (TGI) ([5]; NCI-H522, 5 log dose): 4.04 µM
- CC50 ([5]; NCI-H522, 5 log dose, 48 h, read-out: LC50 (the source's name)): 16.7 µM
- activity at 10 µM [5]: -17.4%
- GI50 ([6]; SW-620, 5 log dose): 2.86 µM
- IC (TGI) ([6]; SW-620, 5 log dose): 7.79 µM
- CC50 ([6]; SW-620, 5 log dose, 48 h, read-out: LC50 (the source's name)): 21.2 µM
- activity at 10 µM [6]: 15.4%
- TGI ([7]; 5 log dose): 14.2 µM
- GI50 ([7]; Homo sapiens, 5 log dose): 2.8 µM
- CC50 ([7]; Homo sapiens, 5 log dose, 48 h, read-out: LC50 (the source's name)): > 25 µM
- activity at 10 µM ([7]; Homo sapiens): 1.06%
- GI50 ([8]; SNB-75, 5 log dose): 0.49 µM
- IC (TGI) ([8]; SNB-75, 5 log dose): 6.65 µM
- LC50 (concentration killing 50% of cells) ([8]; SNB-75, 5 log dose, 48 h): > 25 µM
- activity at 10 µM [8]: 13.1%
- GI50 [9]: 1.29 µM
- CC50 [9, 21]: 11.9 µM
- IC (TGI) ([9]; read-out: TGI): 4.85 µM
- activity at 10 µM [9]: -62%
- GI50 ([10]; NCI-H23, 5 log dose): 1.56 µM
- IC (TGI) ([10]; NCI-H23, 5 log dose): 7.87 µM
- CC50 ([10]; NCI-H23, 5 log dose, 48 h, read-out: LC50 (the source's name)): > 25 µM
- activity at 10 µM [10]: 4.18%
- GI50 ([11]; OVCAR-4, 5 log dose): 2.09 µM
- IC (TGI) ([11]; OVCAR-4, 5 log dose): > 25 µM
- CC50 ([11]; OVCAR-4, 5 log dose, 48 h, read-out: LC50 (the source's name)): > 25 µM
- activity at 10 µM [11]: 18.1%
- GI50 ([12]; 5 log dose): 1.56 µM
- IC (TGI) ([12]; 5 log dose): 8.2 µM
- CC50 [12, 21]: > 25 µM
- activity at 10 µM [12]: 21.1%
- GI50 ([13]; OVCAR-5, 5 log dose): 3.88 µM
- IC (TGI) ([13]; OVCAR-5, 5 log dose): 15.4 µM
- CC50 ([13]; OVCAR-5, 5 log dose, 48 h, read-out: LC50 (the source's name)): > 25 µM
- activity at 10 µM [13]: 23.1%
- GI50 ([14]; COLO 205, 5 log dose): 0.45 µM
- IC (TGI) ([14]; COLO 205, 5 log dose): 4.38 µM
- CC50 ([14]; COLO 205, 5 log dose, 48 h, read-out: LC50 (the source's name)): 16.1 µM
- activity at 10 µM [14]: -5.75%
- GI50 ([15]; BT-549): 2.05 µM
- IC (TGI) ([15]; BT-549, read-out: TGI): 6.65 µM
- activity at 10 µM [15]: -9.97%
- CC50 ([15]; BT-549, 5 log dose, 48 h, read-out: LC50 (the source's name)): 19 µM
- GI50 ([16]; 786-0, 5 log dose): 2.6 µM
- IC (TGI) ([16]; 786-0, 5 log dose): 8.11 µM
- CC50 ([16]; 786-0, 5 log dose, 48 h, read-out: LC50 (the source's name)): > 25 µM
- activity at 10 µM [16]: 5.25%
- GI50 ([17]; K-562, 5 log dose): 1.85 µM
- IC (TGI) ([17]; K-562, 5 log dose): 11.9 µM
- CC50 ([17]; K-562, 5 log dose, 48 h, read-out: LC50 (the source's name)): > 25 µM
- activity at 10 µM [17]: 2.77%
- GI50 ([18]; Malme-3M): 1.38 µM
- IC (TGI) ([18]; Malme-3M, read-out: TGI): 7.3 µM
- activity at 10 µM ([18]; Malme-3M): -13.5%
- CC50 ([18]; MALME-3M, 5 log dose, 48 h, read-out: LC50 (the source's name)): 25 µM
- GI50 [19]: 0.88 µM
- IC (TGI) ([19]; read-out: TGI): 8.44 µM
- activity at 10 µM [19]: -5.86%
- CC50 ([19]; T-47D, 5 log dose, 48 h, read-out: LC50 (the source's name)): > 25 µM
- GI50 ([20]; RPMI-8226, 5 log dose): 1.37 µM
- IC (TGI) ([20]; RPMI-8226, 5 log dose): 6.96 µM
- CC50 ([20]; RPMI-8226, 5 log dose, 48 h, read-out: LC50 (the source's name)): > 25 µM
- activity at 10 µM [20]: -25.3%

SMILES: Cc1nnc(Nc2ccc(NC(=O)c3ccc(Cl)cc3)cc2)c2ccccc12 [Compound 5d, 4-Chloro-N-(4–(4-methylphthalazin-1-ylamino)phenyl)benzamide]
- activity at 10 µM [1]: 106%
- activity at 10 µM [2]: 76.3%
- activity at 10 µM [3]: 86.3%
- inhibition at 10 µM [4]: 15%
- activity at 10 µM [5]: 94.7%
- activity at 10 µM [6]: 92.7%
- activity at 10 µM ([7]; Homo sapiens): 91%
- activity at 10 µM [8]: 81.2%
- activity at 10 µM [9]: 91.9%
- activity at 10 µM [10]: 95%
- activity at 10 µM [11]: 105%
- activity at 10 µM [12]: 112%
- activity at 10 µM [13]: 98.5%
- activity at 10 µM [14]: 90.3%
- activity at 10 µM [15]: 92.2%
- activity at 10 µM [16]: 109%
- activity at 10 µM [17]: 101%
- activity at 10 µM ([18]; Malme-3M): 99%
- activity at 10 µM [19]: 79.8%
- activity at 10 µM [20]: 89.3%
